Results taken from PubChem BioAssay AID1963981 (Molecular Pharmacology Branch, DTP, NCI, 2024).

Test system: 354836-022-R-J1-PDC multicell spheroid viability
Experiment: Anticancer human tumor 354836-022-R-J1-PDC patient-derived head and neck squamous cell carcinoma cell line growth inhibition [PI3K]
Conditions: for IC50: curve of first compound; for viability, T/C: stronger effect = lower value
Summary of the method: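 Combination activity was assessed by viability in multicellular tumor spheroids carrying HUVEC and MSC components. Agents were tested with PI3K inhibitors from a Cmax-based top dose (or 10 microM) downward in half-log increments.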
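Further: spheroids exposed to agents for seven days before the viability read.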

With `Cn1cnc2c(F)c(Nc3ccc(Br)cc3Cl)c(C(=O)NOCCO)cc21` + Cc1nc(NC(=O)N2CCCC2C(N)=O)sc1-c1ccnc(C(C)(C)C(F)(F)F)c1 the IC50 (second compound 0.0316 µM) was > 3 µM, the IC50 (second compound 0.1 µM) was > 3 µM and the IC50 (second compound 0.316 µM) was > 3 µM. The IC50 (second compound 1 µM) was > 3 µM, the IC50 (second compound 3.16 µM) was 1.1 µM and the IC50 (second compound 10 µM) was < 0.00949 µM. It also gave a viability, T/C (second compound 0.0316 µM, first compound 0.00949 µM) of 85.6%, a viability, T/C (second compound 0.0316 µM, first compound 0.03 µM) of 82.2% and a viability, T/C (second compound 0.0316 µM, first compound 0.0949 µM) of 90.7%. The viability, T/C (second compound 0.0316 µM, first compound 0.3 µM) was 64.6%, the viability, T/C (second compound 0.0316 µM, first compound 0.949 µM) was 73.7% and the viability, T/C (second compound 0.0316 µM, first compound 3 µM) was 54.3%. The viability, T/C (second compound 0.1 µM, first compound 0.00949 µM) was 96.5%, the viability, T/C (second compound 0.1 µM, first compound 0.03 µM) was 83.1% and the viability, T/C (second compound 0.1 µM, first compound 0.0949 µM) was 82.9%. For the same compound, the viability, T/C (second compound 0.1 µM, first compound 0.3 µM) was 76.3%, the viability, T/C (second compound 0.1 µM, first compound 0.949 µM) was 70.4% and the viability, T/C (second compound 0.1 µM, first compound 3 µM) was 54.4%. It also gave a viability, T/C (second compound 0.316 µM, first compound 0.00949 µM) of 79.3%, a viability, T/C (second compound 0.316 µM, first compound 0.03 µM) of 86.2% and a viability, T/C (second compound 0.316 µM, first compound 0.0949 µM) of 80.5%. The viability, T/C (second compound 0.316 µM, first compound 0.3 µM) was 78.2%, the viability, T/C (second compound 0.316 µM, first compound 0.949 µM) was 75.6% and the viability, T/C (second compound 0.316 µM, first compound 3 µM) was 55.7%. For the same compound, the viability, T/C (second compound 1 µM, first compound 0.00949 µM) was 71.7%, the viability, T/C (second compound 1 µM, first compound 0.03 µM) was 75.2% and the viability, T/C (second compound 1 µM, first compound 0.0949 µM) was 78%. For the same compound, the viability, T/C (second compound 1 µM, first compound 0.3 µM) was 58.6%, the viability, T/C (second compound 1 µM, first compound 0.949 µM) was 63.3% and the viability, T/C (second compound 1 µM, first compound 3 µM) was 52%. For the same compound, the viability, T/C (second compound 3.16 µM, first compound 0.00949 µM) was 49.1%, the viability, T/C (second compound 3.16 µM, first compound 0.03 µM) was 58.1% and the viability, T/C (second compound 3.16 µM, first compound 0.0949 µM) was 55.8%. The viability, T/C (second compound 3.16 µM, first compound 0.3 µM) was 46%, the viability, T/C (second compound 3.16 µM, first compound 0.949 µM) was 54.8% and the viability, T/C (second compound 3.16 µM, first compound 3 µM) was 31.7%. The viability, T/C (second compound 10 µM, first compound 0.00949 µM) was 33%, the viability, T/C (second compound 10 µM, first compound 0.03 µM) was 29.7% and the viability, T/C (second compound 10 µM, first compound 0.0949 µM) was 30%. It also gave a viability, T/C (second compound 10 µM, first compound 0.3 µM) of 30.4%, a viability, T/C (second compound 10 µM, first compound 0.949 µM) of 25% and a viability, T/C (second compound 10 µM, first compound 3 µM) of 12.6%.
